According to US8906925B2, “Pyrido[4,3-B]indoles containing rigid moieties” (Medivation Technologies, Inc., priority 2008, dated 2014):

What was measured:
[1] = target: human dopamine D2L receptor (Homo sapiens, UniProt P14416); test: Dopamine D2L radioligand binding ([3H]Spiperone); conditions: percent inhibition of specific binding, compound at 1 μM; for inhibition at 1 µM: read-out: Inhibition of ligand binding, Dopamine D2L
From the text: Non-specific binding was estimated in the presence of […] Haloperidol. Receptor proteins were filtered and washed, the filters were then counted to determine [^3H]Spiperone specifically bound. […] Biochemical assay results are presented as the percent inhibition of specific binding in Table 9.

histamine receptor H1 = histamine receptor H1 (Homo sapiens, UniProt P35367); test: Histamine H1 radioligand binding ([3H]Pyrilamine); conditions: for inhibition at 1 µM: read-out: Histamine Binding (1 μM) H1, percent inhibition of specific binding, 1 μM
Sequence of histamine receptor H1 (P35367 whole entry): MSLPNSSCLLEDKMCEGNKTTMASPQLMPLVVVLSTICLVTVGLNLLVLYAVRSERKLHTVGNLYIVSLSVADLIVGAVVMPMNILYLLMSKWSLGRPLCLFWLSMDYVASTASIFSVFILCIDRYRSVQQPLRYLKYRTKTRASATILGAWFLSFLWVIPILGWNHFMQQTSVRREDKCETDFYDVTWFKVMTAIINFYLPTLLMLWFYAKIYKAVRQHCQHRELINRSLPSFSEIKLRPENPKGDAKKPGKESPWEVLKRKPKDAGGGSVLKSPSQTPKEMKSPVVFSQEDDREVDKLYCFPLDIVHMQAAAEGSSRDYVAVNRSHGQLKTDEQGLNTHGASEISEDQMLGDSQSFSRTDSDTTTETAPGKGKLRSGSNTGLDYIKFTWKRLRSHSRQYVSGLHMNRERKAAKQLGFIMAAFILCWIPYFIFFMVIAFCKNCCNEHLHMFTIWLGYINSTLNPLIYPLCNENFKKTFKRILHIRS
Summary of the method: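 Values are percent inhibition of specific [3H]pyrilamine (1.2 nM) binding with compounds at ≤1 μM (1% DMSO vehicle); 180 min incubation at 25 °C, pH 7.4 Tris buffer, on CHO-expressed human H1 receptor; 1 μM pyrilamine defined nonspecific binding, bound ligand counted after filtration.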

[2] = target: T1, human recombinant serotonin (5-Hydroxytryptamine) 5-HT2C receptor (Homo sapiens, UniProt P28335); test: Serotonin 5-HT2C radioligand binding ([3H]Mesulergine); conditions: compound at 0.1 μM; read-out: Inhibition of ligand binding, Serotonin 5-HT2C (percent inhibition of specific binding)
T1 construct: expressed in transfected cells; host or cells: Chinese hamster ovary (CHO-K1) cells
T1 sequence (P28335 33-458): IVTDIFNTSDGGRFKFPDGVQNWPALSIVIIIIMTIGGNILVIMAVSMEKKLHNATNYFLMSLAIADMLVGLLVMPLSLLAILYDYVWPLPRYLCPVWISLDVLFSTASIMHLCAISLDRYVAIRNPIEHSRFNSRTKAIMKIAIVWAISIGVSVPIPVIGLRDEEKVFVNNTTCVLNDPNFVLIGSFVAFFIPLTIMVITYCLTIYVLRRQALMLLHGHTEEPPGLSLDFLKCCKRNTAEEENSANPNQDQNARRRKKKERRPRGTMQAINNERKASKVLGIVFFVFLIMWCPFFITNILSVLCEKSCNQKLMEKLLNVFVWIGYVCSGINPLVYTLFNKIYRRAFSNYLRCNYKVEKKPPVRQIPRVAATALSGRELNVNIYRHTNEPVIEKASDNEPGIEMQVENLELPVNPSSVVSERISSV
Experimental: Compounds of the invention were incubated with 1 nM [^3H]Mesulergine for 60 min. at 25° C. Non-specific binding was estimated in the presence of 1 μM Mianserin. Receptor proteins were filtered and washed, the filters were then counted to determine [^3H]Mesulergine specifically bound. Compounds were screened at 1 μM or lower, using 1% DMSO as vehicle. Biochemical assay results are presented as the percent inhibition of specific binding in Table 10.

[3] = target: T2, human recombinant serotonin (5-Hydroxytryptamine) 5-HT2A receptor (Homo sapiens, UniProt P28223); test: Serotonin 5-HT2A radioligand binding ([3H]Ketanserin); conditions: read-out: Inhibition of ligand binding, Serotonin 5-HT2A (percent inhibition of specific binding), compound at 0.1 μM
T2 construct: expressed in transfected cells; host or cells: Chinese hamster ovary (CHO-K1) cells
T2 sequence (P28223 whole entry): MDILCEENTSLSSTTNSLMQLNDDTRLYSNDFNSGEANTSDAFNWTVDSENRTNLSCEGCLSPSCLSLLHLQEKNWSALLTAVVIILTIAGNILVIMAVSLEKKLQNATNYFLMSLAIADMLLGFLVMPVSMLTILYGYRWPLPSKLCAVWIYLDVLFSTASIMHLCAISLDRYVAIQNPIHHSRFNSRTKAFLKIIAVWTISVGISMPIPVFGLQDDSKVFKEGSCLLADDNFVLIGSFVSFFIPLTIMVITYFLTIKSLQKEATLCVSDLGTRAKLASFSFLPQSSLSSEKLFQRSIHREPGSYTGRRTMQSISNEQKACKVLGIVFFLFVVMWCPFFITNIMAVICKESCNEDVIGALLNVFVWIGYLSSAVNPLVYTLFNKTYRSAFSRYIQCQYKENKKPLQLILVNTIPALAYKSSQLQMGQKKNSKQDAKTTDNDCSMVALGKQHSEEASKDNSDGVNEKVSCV
Experimental: Compounds of the invention were incubated with 0.5 nM [^3H]Ketanserin for 60 min. at 25° C. Non-specific binding was estimated in the presence of 1 μM Mianserin. Receptor proteins were filtered and washed, the filters were then counted to determine [^3H]Ketanserin specifically bound.

[4] = target: T3, human recombinant serotonin (5-Hydroxytryptamine) 5-HT6 receptor (Homo sapiens, UniProt P50406); test: Serotonin 5-HT6 radioligand binding ([3H]LSD); conditions: compound at 0.1 μM; read-out: Inhibition of ligand binding, Serotonin 5-HT6 (percent inhibition of specific binding)
T3 construct: expressed in transfected cells; host or cells: human HeLa cells
T3 sequence (P50406 whole entry): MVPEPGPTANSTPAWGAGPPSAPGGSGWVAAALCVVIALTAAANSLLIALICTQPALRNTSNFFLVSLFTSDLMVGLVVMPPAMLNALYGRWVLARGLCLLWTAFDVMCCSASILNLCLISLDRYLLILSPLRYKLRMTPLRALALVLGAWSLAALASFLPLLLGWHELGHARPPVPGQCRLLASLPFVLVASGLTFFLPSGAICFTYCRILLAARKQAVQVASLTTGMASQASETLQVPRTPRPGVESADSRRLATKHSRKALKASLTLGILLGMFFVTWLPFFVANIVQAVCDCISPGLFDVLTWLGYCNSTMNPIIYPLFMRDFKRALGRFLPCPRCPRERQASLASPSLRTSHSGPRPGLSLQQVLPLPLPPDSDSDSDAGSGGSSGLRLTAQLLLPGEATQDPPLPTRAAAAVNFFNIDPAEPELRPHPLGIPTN
Experimental: Compounds of the invention were incubated with 1.5 nM [3H]Lysergic acid diethylamide (LSD) for 120 min. at 37° C. […] Receptor proteins were filtered and washed, the filters were then counted to determine [3H]LSD specifically bound. Compounds were screened at 1 μM or lower, using 1% DMSO as vehicle. Biochemical assay results are presented as the percent inhibition of specific binding in Table 10.

[5] = target: human recombinant serotonin (5-Hydroxytryptamine) 5-HT7 receptor (Homo sapiens, UniProt P34969); test: Serotonin 5-HT7 radioligand binding ([3H]LSD); conditions: compound at 0.1 μM; read-out: Inhibition of ligand binding, Serotonin 5-HT7 (percent inhibition of specific binding)
Sequence of human recombinant serotonin (5-Hydroxytryptamine) 5-HT7 receptor (P34969 whole entry): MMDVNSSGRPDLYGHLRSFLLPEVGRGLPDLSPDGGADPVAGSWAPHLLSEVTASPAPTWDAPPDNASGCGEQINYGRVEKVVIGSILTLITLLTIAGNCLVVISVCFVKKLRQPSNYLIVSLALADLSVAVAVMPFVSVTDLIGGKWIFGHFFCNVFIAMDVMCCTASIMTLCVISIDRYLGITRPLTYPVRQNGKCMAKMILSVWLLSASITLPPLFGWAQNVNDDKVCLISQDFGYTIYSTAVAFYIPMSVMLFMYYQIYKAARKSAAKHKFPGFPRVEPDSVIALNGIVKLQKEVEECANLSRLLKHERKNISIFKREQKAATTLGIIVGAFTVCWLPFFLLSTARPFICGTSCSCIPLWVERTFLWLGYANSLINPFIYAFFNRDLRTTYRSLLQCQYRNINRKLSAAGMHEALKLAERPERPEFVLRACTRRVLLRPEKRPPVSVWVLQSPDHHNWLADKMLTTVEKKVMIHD
From the text: Receptor proteins were filtered and washed, the filters were then counted to determine [^3H]LSD specifically bound.

Sequence of human dopamine D2L receptor (P14416 whole entry): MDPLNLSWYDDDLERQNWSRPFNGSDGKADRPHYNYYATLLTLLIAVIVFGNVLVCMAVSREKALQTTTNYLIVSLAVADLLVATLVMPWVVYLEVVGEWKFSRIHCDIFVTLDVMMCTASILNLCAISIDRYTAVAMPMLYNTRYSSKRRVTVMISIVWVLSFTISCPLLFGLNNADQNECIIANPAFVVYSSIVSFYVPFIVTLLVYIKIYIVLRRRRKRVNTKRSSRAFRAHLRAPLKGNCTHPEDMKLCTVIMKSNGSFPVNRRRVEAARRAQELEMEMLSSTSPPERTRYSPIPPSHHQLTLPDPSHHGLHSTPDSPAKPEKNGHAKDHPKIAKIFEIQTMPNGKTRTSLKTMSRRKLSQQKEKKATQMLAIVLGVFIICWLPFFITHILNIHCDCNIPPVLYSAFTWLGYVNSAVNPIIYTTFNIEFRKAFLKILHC

## C/C(=C\n1c2c(c3cc(C(F)(F)F)ccc31)CN(C)CC2)c1ccncc1 [Compound 249, (E)-2-methyl-5-(2-(pyridin-4-yl)prop-1-enyl)-8-(trifluoromethyl)-2,3,4,5-tetrahydro-1H-pyrido[4,3-b]indole]
[1]
  inhibition at 1 µM: 93%
Histamine receptor H1
  inhibition at 1 µM: 48%
[2]
  inhibition at 0.1 µM: 60%
[3]
  inhibition at 0.1 µM: 90%
[4]
  inhibition at 0.1 µM: 98%
[5]
  inhibition at 0.1 µM: 70%

## CCC(O)(Cn1c2c(c3cc(Cl)ccc31)CN(C)CC2)c1ccncc1 (stereo not drawn) [Compound 195, 1-(8-chloro-2-methyl-3,4-dihydro-1H-pyrido[4,3-b]indol-5(2H)-yl)-2-(pyridin-4-yl)butan-2-ol]
[1]
  inhibition at 1 µM: 17%
Histamine receptor H1
  inhibition at 1 µM: 20%
[2]
  inhibition at 0.1 µM: 43%
[3]
  inhibition at 0.1 µM: 62%
[4]
  inhibition at 0.1 µM: 32%
[5]
  inhibition at 0.1 µM: 18%

## C/C(=C\n1c2c(c3cccc(Cl)c31)CN(C)CC2)c1ccc(C)nc1 [Compound 252, (E)-6-chloro-2-methyl-5-(2-(6-methylpyridin-3-yl)prop-1-enyl)-2,3,4,5-tetrahydro-1H-pyrido[4,3-b]indole]
[1]
  inhibition at 1 µM: 13%
Histamine receptor H1
  inhibition at 1 µM: 22%
[2]
  inhibition at 0.1 µM: 50%
[3]
  inhibition at 0.1 µM: 67%
[4]
  inhibition at 0.1 µM: 9%
[5]
  inhibition at 0.1 µM: 23%

## C/C(=C\n1c2c(c3ccc(F)cc31)CN(C)CC2)c1ccc(C)nc1 [Compound 261, (E)-7-fluoro-2-methyl-5-(2-(6-methylpyridin-3-yl)prop-1-enyl)-2,3,4,5-tetrahydro-1H-pyrido[4,3-b]indole]
[1]
  inhibition at 1 µM: 28%
Histamine receptor H1
  inhibition at 1 µM: 11%
[2]
  inhibition at 0.1 µM: 31%
[3]
  inhibition at 0.1 µM: 74%
[4]
  inhibition at 0.1 µM: 4%
[5]
  inhibition at 0.1 µM: 47%

## CC(=Cn1c2c(c3cc(Cl)ccc31)CN(C)CC2)c1ccc(F)cc1F (stereo in doubt) [Compound 107, 8-chloro-5-((Z)-2-(2,4-difluorophenyl)prop-1-enyl)-2,3,4,5-tetrahydro-2-methyl-1H-pyrido[4,3-b]indole]
[1]; 1 µM
  Inhibition of ligand binding, Dopamine D2L: 72%
Histamine receptor H1; 1 μM
  Histamine Binding (1 μM) H1, percent inhibition of specific binding: 88%
[2]
  inhibition at 0.1 µM: 95%
[3]
  inhibition at 0.1 µM: 96%
[4]
  inhibition at 0.1 µM: 97%
[5]
  inhibition at 0.1 µM: 95%

## Cc1ccc2c(c1)c1c(n2CC(C)(O)c2ccncn2)CCN(C)C1 (stereo not drawn) [Compound 197, 1-(2,8-dimethyl-3,4-dihydro-1H-pyrido[4,3-b]indol-5(2H)-yl)-2-(pyrimidin-4-yl)propan-2-ol]
[1]
  inhibition at 1 µM: 14%
Histamine receptor H1
  inhibition at 1 µM: 61%
[2]
  inhibition at 0.1 µM: 16%
[3]
  inhibition at 0.1 µM: 17%
[4]
  inhibition at 0.1 µM: 4%
[5]
  inhibition at 0.1 µM: 10%

## C/C(=C\n1c2c(c3cc(Cl)ccc31)CN(C)C(C)C2)c1ccc(C)nc1 (stereo not drawn) [Compound 273, (E)-8-chloro-2,3-dimethyl-5-(2-(6-methylpyridin-3-yl)prop-1-enyl)-2,3,4,5-tetrahydro-1H-pyrido[4,3-b]indole]
[1]
  inhibition at 1 µM: 12%
Histamine receptor H1
  inhibition at 1 µM: 41%
[2]
  inhibition at 0.1 µM: 100%
[3]
  inhibition at 0.1 µM: 94%
[4]
  inhibition at 0.1 µM: 46%
[5]
  inhibition at 0.1 µM: 85%

## CC(C)C(O)(Cn1c2c(c3cc(Cl)ccc31)CN(C)CC2)c1ccncc1 (stereo not drawn) [Compound 193, 1-(8-chloro-2-methyl-3,4-dihydro-1H-pyrido[4,3-b]indol-5(2H)-yl)-3-methyl-2-(pyridin-4-yl)butan-2-ol]
[1]
  inhibition at 1 µM: 14%
Histamine receptor H1
  inhibition at 1 µM: -7%
[2]
  inhibition at 0.1 µM: 44%
[3]
  inhibition at 0.1 µM: 69%
[4]
  inhibition at 0.1 µM: 3%
[5]
  inhibition at 0.1 µM: 40%

## C/C(=C\n1c2c(c3cc(C(C)(C)C)ccc31)CN(C)CC2)c1ccncc1 [Compound 271, (E)-8-tert-butyl-2-methyl-5-(2-(pyridin-4-yl)prop-1-enyl)-2,3,4,5-tetrahydro-1H-pyrido[4,3-b]indole]
[1]
  inhibition at 1 µM: 63%
Histamine receptor H1
  inhibition at 1 µM: -16%
[2]
  inhibition at 0.1 µM: 19%
[3]
  inhibition at 0.1 µM: 41%
[4]
  inhibition at 0.1 µM: 90%
[5]
  inhibition at 0.1 µM: 10%
